Test results reported in ChEMBL document CHEMBL5055643, “Sophoraflavanone G Resensitizes ABCG2-Overexpressing Multidrug-Resistant Non-Small-Cell Lung Cancer Cells to Chemotherapeutic Drugs” (J Nat Prod, 2021).
Calls of active or inactive are those of the source. The calls are words filed in the database; no cut-off is given here.

Legend:
A549 [1] = experiment: Cytotoxicity against becatecarin-selected ABCG2-overexpressing human A549/Bec150 cells assessed as reduction in cell viability measured after 72 hrs by CCK8 assay; format: ADME, cell-based; conditions: A549, 72 h
NCI/ADR-RES [2] = experiment: Chemo-sensitizing activity against ABCB1-overexpressing human NCI/ADR-RES cells assessed as reversal fold at 2 uM measured after 72 hrs in presence of colchicine by CCK8 assay relative to control; format: functional
NCI/ADR-RES [3] = experiment: Chemo-sensitizing activity against ABCB1-overexpressing human NCI/ADR-RES cells assessed as reversal fold at 5 uM measured after 72 hrs in presence of colchicine by CCK8 assay relative to control; format: functional
HEK293 [4] = experiment: Chemo-sensitizing activity against ABCB1-overexpressing human HEK293/MDR19 cells assessed as reversal fold at 2 uM measured after 72 hrs in presence of colchicine by CCK8 assay relative to control; format: functional
HEK293 [5] = experiment: Chemo-sensitizing activity against ABCG2-overexpressing human HEK293/482R cells assessed as reversal fold at 2 uM measured after 72 hrs in presence of mitoxatrone by CCK8 assay relative to control; format: functional
KB 3-1 [6] = experiment: Chemo-sensitizing activity against human KB 3-1 cells assessed as reversal fold at 1 uM measured after 72 hrs in presence of vincristine by CCK8 assay relative to control; format: functional
[7] = target: T1, Broad substrate specificity ATP-binding cassette transporter ABCG2 (Homo sapiens, UniProt Q9UNQ0); experiment: Inhibition of ABCG2 in becatecarin-selected ABCG2-overexpressing human A549/Bec150 cells assessed as increase in intracellular mitoxantrone accumulation incubated for 1 hr in presence of mitoxantrone by flow cytometry; format: cell-based
T1 sequence (Q9UNQ0 whole entry): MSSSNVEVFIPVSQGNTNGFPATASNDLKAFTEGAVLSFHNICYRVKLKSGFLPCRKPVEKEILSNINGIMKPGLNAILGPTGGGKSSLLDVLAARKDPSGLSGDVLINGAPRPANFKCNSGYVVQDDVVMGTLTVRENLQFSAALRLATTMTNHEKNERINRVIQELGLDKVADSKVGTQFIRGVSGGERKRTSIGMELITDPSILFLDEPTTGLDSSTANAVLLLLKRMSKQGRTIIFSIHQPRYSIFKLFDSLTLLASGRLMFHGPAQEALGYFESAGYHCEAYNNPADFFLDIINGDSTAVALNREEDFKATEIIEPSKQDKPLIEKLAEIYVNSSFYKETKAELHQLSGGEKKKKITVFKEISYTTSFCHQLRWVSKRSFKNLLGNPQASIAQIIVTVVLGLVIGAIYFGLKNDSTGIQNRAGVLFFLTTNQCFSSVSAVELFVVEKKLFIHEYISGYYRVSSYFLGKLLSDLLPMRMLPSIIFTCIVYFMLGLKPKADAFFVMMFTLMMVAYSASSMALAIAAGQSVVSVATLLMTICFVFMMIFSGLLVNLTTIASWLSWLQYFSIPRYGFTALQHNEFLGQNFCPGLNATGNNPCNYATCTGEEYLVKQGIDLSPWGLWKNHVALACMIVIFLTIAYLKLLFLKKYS

A549 [8] = experiment: Chemo-sensitizing activity against becatecarin-selected ABCG2-overexpressing human A549/Bec150 cells assessed as reversal fold at 1 uM measured after 72 hrs in presence of SN-38 by CCK8 assay relative to control; format: functional
HEK293 [9] = experiment: Chemo-sensitizing activity against ABCB1-overexpressing human HEK293/MDR19 cells assessed as reversal fold at 5 uM measured after 72 hrs in presence of vincristine by CCK8 assay relative to control; format: functional
KB 3-1 [10] = experiment: Chemo-sensitizing activity against human KB 3-1 cells assessed as reversal fold at 5 uM measured after 72 hrs in presence of paclitaxel by CCK8 assay relative to control; format: functional
HEK293 [11] = experiment: Chemo-sensitizing activity against human HEK293 cells assessed as reversal fold at 1 uM measured after 72 hrs in presence of SN-38 by CCK8 assay relative to control; format: functional
A549 [12] = experiment: Effect on ABCG2 protein expression in becatecarin-selected ABCG2-overexpressing human A549/Bec150 cells at 1 to 5 uM incubated for 72 hrs by immunoblot analysis; format: functional, cell-based; conditions: dose 1-5 µM
HEK293 [13] = experiment: Cytotoxicity against human HEK293 cells assessed as reduction in cell viability measured after 72 hrs by CCK8 assay; format: cell-based; conditions: HEK293, 72 h
NCI-H460 [14] = experiment: Chemo-sensitizing activity against human NCI-H460 cells assessed as reversal fold at 1 uM measured after 72 hrs in presence of SN-38 by CCK8 assay relative to control; format: functional
KB-V1 = experiment: Chemo-sensitizing activity against ABCB1-overexpressing human KB-V1 cells assessed as reversal fold at 2 uM measured after 72 hrs in presence of paclitaxel by CCK8 assay relative to control; format: functional
HEK293 [15] = experiment: Chemo-sensitizing activity against ABCG2-overexpressing human HEK293/482R cells assessed as reversal fold at 5 uM measured after 72 hrs in presence of mitoxatrone by CCK8 assay relative to control; format: functional
NCI-H460 [16] = experiment: Chemo-sensitizing activity against mitoxantrone-selected ABCG2-overexpressing human NCI-H460/MX20 cells assessed as reversal fold at 1 uM measured after 72 hrs in presence of topotecan by CCK8 assay relative to control; format: functional
OVCAR-8 = experiment: Chemo-sensitizing activity against human OVCAR-8 cells assessed as reversal fold at 5 uM measured after 72 hrs in presence of paclitaxel by CCK8 assay relative to control; format: functional
HEK293 [17] = experiment: Chemo-sensitizing activity against human HEK293 cells assessed as reversal fold at 1 uM measured after 72 hrs in presence of topotecan by CCK8 assay relative to control; format: functional
ABCG2 = experiment: Resistance factor, ratio of IC50 for ABCG2-overexpressing human HEK293/482R cells to IC50 for human HEK293 cells; format: ADME; conditions: read-out: Ratio IC50
HEK293 [18] = experiment: Chemo-sensitizing activity against human HEK293 cells assessed as reversal fold at 1 uM measured after 72 hrs in presence of mitoxatrone by CCK8 assay relative to control; format: functional
A549 [19] = experiment: Chemo-sensitizing activity against human A549 cells assessed as reversal fold at 2 uM measured after 72 hrs in presence of topotecan by CCK8 assay relative to control; format: functional
A549 [20] = experiment: Chemo-sensitizing activity against becatecarin-selected ABCG2-overexpressing human A549/Bec150 cells assessed as reversal fold at 5 uM measured after 72 hrs in presence of SN-38 by CCK8 assay relative to control; format: functional
A549 [21] = experiment: Chemo-sensitizing activity against human A549 cells assessed as reversal fold at 2 uM measured after 72 hrs in presence of SN-38 by CCK8 assay relative to control; format: functional
HEK293 [22] = experiment: Chemo-sensitizing activity against human HEK293 cells assessed as reversal fold at 2 uM measured after 72 hrs in presence of SN-38 by CCK8 assay relative to control; format: functional
HEK293 [23] = experiment: Cytotoxicity against ABCG2-overexpressing human HEK293/482R cells assessed as reduction in cell viability measured after 72 hrs by CCK8 assay; format: ADME, cell-based; conditions: HEK293, 72 h
HEK293 [24] = experiment: Chemo-sensitizing activity against ABCB1-overexpressing human HEK293/MDR19 cells assessed as reversal fold at 2 uM measured after 72 hrs in presence of paclitaxel by CCK8 assay relative to control; format: functional

`C=C(C)[C@H](CC=C(C)C)Cc1c(O)cc(O)c2c1O[C@H](c1ccc(O)cc1O)CC2=O` [SOPHORAFLAVANONE G] was tested, and the IC50 (A549 [1]) was 21.3 µM, the “fold change (FC)” value (NCI/ADR-RES [2]) was 0.8 and the “fold change (FC)” value (NCI/ADR-RES [3]) was 0.7. For the same compound, the “fold change (FC)” value (HEK293 [4]) was 0.8, the “fold change (FC)” value (HEK293 [5]) was 3.2 and the “fold change (FC)” value (KB 3-1 [6]) was 1.1. The IC50 [7] was 2.29 µM, the “inhibition (INH)” value ([7]; human, a549, 1 h, time 1 hrs) was “Dose-dependent effect” and the “fold change (FC)” value (A549 [8]) was 1.7. The “fold change (FC)” value (HEK293 [9]) was 2.2, the “fold change (FC)” value (KB 3-1 [10]) was 1.1 and the “fold change (FC)” value (HEK293 [11]) was 1. The Activity (A549 [12]) was “inactive”, the IC50 (HEK293 [13]) was 35.1 µM and the “fold change (FC)” value (NCI-H460 [14]) was 1.3. The “fold change (FC)” value (KB-V1) was 1.2, the “fold change (FC)” value (HEK293 [15]) was 5.6 and the “fold change (FC)” value (NCI-H460 [16]) was 4.1. The “fold change (FC)” value (OVCAR-8) was 1.1, the “fold change (FC)” value (HEK293 [17]) was 0.9 and the selectivity ratio (ABCG2) was 1.4. The “fold change (FC)” value (HEK293 [18]) was 1, the “fold change (FC)” value (A549 [19]) was 1.2 and the “fold change (FC)” value (A549 [20]) was 7.7. The “fold change (FC)” value (A549 [21]) was 1.1, the “fold change (FC)” value (HEK293 [22]) was 0.9 and the IC50 (HEK293 [23]) was 49.7 µM. For the same compound, the “fold change (FC)” value (HEK293 [24]) was 1.2.
